Results published in US9931347B2, “Pharmaceutical compound” (IOmet Pharma Ltd., priority 2013, dated 2018).

Tests used:
[1] = molecular target: T1, TDO (A172 human glioblastoma cells) (Homo sapiens, UniProt P48775); assay: A172 Kynurenine cell based assay; details: 500 μM L-tryptophan, 48 hours, kynurenine by Erhlich's reagent
T1 construct: This assay utilised cancer cells which expressed either TDO or IDO; endogenous in cells; host or cells: A172 human glioblastoma cells
Protocol: (§1) Exemplary compounds of the invention were prepared, and tested to determine their effect as TDO and/or IDO inhibitors. Two different assays were employed: 1. a cell-based assay for detecting the effect of test compounds on kynurenine production in two different cancer cell types. This assay utilised cancer cells which expressed either TDO or IDO and as such was used as a means of testing compound activity at these two enzymes in a cell-based context. 2. a TDO and IDO biochemical coupled assay which utilised recombinantly produced and purified TDO and IDO enzymes in combination with the enzyme formamidase. This coupled enzyme system allowed conversion of N-formylkynurenine produced by TDO or IDO activity to kynurenine which was then quantified by fluorescence following addition of Erhlich's Reagent The protocols for these are set out below.
(§2) A172 (human glioblastoma) and SKOV3 (human ovarian adenocarcinoma) cells were seeded in a 96 well plate at 30,000 or 40,000 cells per well respectively in phenol red-free RPMI supplemented with 10% FCS, 2 mM L-glutamine and 500 μM L-tryptophan. IDO expression was induced in the SKOV3 cells by the addition of 500 ng/ml IFN-γ. Cells were incubated at 37° C. with or without the addition of test compound. After 48 hours, the cells were removed by centrifugation and Erhlich's reagent was added to the supernatant. The Erhlich's reagent was incubated for 5 minutes before the absorbance was read at 490 nm.

[2] = molecular target: T2, IDO (SKOV3 human ovarian adenocarcinoma cells, IFN-γ induced) (Homo sapiens, UniProt P14902); assay: SKOV3 Kynurenine cell based assay; details: IDO induced by 500 ng/ml IFN-γ, 500 μM L-tryptophan, 48 hours
T2 construct: IDO expression was induced in the SKOV3 cells by the addition of 500 ng/ml IFN-γ; endogenous in cells; host or cells: SKOV3 human ovarian adenocarcinoma cells, induced with IFN-γ
T2 sequence (P14902 whole entry): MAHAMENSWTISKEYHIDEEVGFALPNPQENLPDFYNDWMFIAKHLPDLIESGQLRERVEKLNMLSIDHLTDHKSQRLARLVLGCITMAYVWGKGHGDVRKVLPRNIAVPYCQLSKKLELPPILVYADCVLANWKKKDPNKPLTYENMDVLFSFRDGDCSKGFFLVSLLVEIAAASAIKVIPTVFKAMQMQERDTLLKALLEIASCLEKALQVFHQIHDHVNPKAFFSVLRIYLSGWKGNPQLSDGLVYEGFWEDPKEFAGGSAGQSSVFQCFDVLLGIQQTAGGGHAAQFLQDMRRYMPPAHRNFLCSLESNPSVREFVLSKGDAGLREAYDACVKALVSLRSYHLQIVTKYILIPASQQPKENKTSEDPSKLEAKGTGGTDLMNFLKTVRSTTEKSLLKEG
Protocol: as §1
as §2, with “supernatant.” for “supernatant. The Erhlich's reagent was incubated for 5 minutes before the absorbance was read at 490 nm.”

T1 sequence (P48775 whole entry): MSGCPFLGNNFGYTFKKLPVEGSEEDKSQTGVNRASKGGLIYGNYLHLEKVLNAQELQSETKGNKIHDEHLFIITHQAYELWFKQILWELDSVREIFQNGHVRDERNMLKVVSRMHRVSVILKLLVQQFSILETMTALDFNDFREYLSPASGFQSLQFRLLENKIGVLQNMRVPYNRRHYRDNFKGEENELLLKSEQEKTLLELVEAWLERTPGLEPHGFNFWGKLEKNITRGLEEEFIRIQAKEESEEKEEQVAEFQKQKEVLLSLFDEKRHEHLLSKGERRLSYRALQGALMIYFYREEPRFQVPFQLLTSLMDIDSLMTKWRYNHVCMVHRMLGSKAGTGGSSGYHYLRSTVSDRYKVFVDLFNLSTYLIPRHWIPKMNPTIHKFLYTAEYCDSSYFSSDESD

Row | SMILES | A172 Kynurenine cell based assay pIC50 [1] | SKOV3 Kynurenine cell based assay pIC50 [2]
1 | CC(=O)N1CCC(c2c[nH]c3ccc(Cl)cc23)CC1 [Compound 238] | + (+ = pIC50 4.00-4.99) | + (+ = pIC50 4.00-4.99)
2 | COCCN1CC(C(=O)N2CCC(c3c[nH]c4cc(F)ccc34)CC2)CC1=O (stereo not drawn) [Compound 283] | + (+ = pIC50 4.00-4.99) | + (+ = pIC50 4.00-4.99)
3 | CC(=O)N1CCC(c2c[nH]c3cnccc23)CC1 [Compound 203] | + (+ = pIC50 4.00-4.99) | + (+ = pIC50 4.00-4.99)
4 | O=S(=O)(C1CCCC1)N1CCC(c2c[nH]c3cc(F)ccc23)CC1 [Compound 291] | ++ (++ = pIC50 5.00-5.99) | + (+ = pIC50 4.00-4.99)
5 | O=S(=O)(N1CCC(c2c[nH]c3cc(F)ccc23)CC1)C(F)(F)F [Compound 296] | ++ (++ = pIC50 5.00-5.99) | + (+ = pIC50 4.00-4.99)
6 | CN(C)CCOc1ccc2c(C3=CCN(S(C)(=O)=O)CC3)c[nH]c2c1 [Compound 254] | + (+ = pIC50 4.00-4.99) | + (+ = pIC50 4.00-4.99)
7 | CC(=O)N1CCC(c2c[nH]c3cc(C(F)(F)F)ccc23)CC1 [Compound 232] | + (+ = pIC50 4.00-4.99) | + (+ = pIC50 4.00-4.99)
8 | CS(=O)(=O)N1CC=C(c2c[nH]c3cc(F)cc(F)c23)CC1 [Compound 215] | ++ (++ = pIC50 5.00-5.99) | + (+ = pIC50 4.00-4.99)
9 | O=S(=O)(Cc1ccccc1)N1CCC(c2c[nH]c3cc(F)ccc23)CC1 [Compound 293] | ++ (++ = pIC50 5.00-5.99) | + (+ = pIC50 4.00-4.99)
10 | O=C1CN(c2c[nH]c3ccccc23)CCN1 [Compound 188] | ++ (++ = pIC50 5.00-5.99) | +− (+− = pIC50 <4.00)
11 | CS(=O)(=O)N1CCC(c2c[nH]c3cc(Cl)ccc23)CC1 [Compound 244] | + (+ = pIC50 4.00-4.99) | + (+ = pIC50 4.00-4.99)
12 | O=C(C1CC(=O)N(C2CCCC2)C1)N1CCC(c2c[nH]c3cc(F)ccc23)CC1 (stereo not drawn) [Compound 276] | + (+ = pIC50 4.00-4.99) | + (+ = pIC50 4.00-4.99)
13 | CC(=O)N1CCC(c2c[nH]c3ccc(C#N)cc23)CC1 [Compound 233] | + (+ = pIC50 4.00-4.99) | + (+ = pIC50 4.00-4.99)
14 | CS(=O)(=O)N1CCC(c2c[nH]c3ccc(C#N)cc23)CC1 [Compound 177] | + (+ = pIC50 4.00-4.99) | + (+ = pIC50 4.00-4.99)
15 | CC(=O)N1CC=C(c2c[nH]c3c(Cl)cccc23)CC1 [Compound 196] | + (+ = pIC50 4.00-4.99) | + (+ = pIC50 4.00-4.99)
16 | CN(C)S(=O)(=O)N1CCC(c2c[nH]c3cc(F)ccc23)CC1 [Compound 250] | ++ (++ = pIC50 5.00-5.99) | + (+ = pIC50 4.00-4.99)
17 | CCN(CC)S(=O)(=O)N1CCC(c2c[nH]c3ccccc23)CC1 [Compound 217] | + (+ = pIC50 4.00-4.99) | + (+ = pIC50 4.00-4.99)
18 | CC(=O)N1CC=C(c2c[nH]c3cc(OCCN(C)C)ccc23)CC1 [Compound 255] | ++ (++ = pIC50 5.00-5.99) | + (+ = pIC50 4.00-4.99)
19 | CC(=O)N1CC=C(c2c[nH]c3ccc(C#N)cc23)CC1 [Compound 225] | + (+ = pIC50 4.00-4.99) | + (+ = pIC50 4.00-4.99)
20 | CS(=O)(=O)N1CC=C(c2c[nH]c3cc(F)c(Cl)cc23)CC1 [Compound 248] | ++ (++ = pIC50 5.00-5.99) | + (+ = pIC50 4.00-4.99)
21 | CC(=O)N1CC=C(c2c[nH]c3cc(C(F)(F)F)ccc23)CC1 [Compound 223] | + (+ = pIC50 4.00-4.99) | + (+ = pIC50 4.00-4.99)

Row | SMILES | A172 Kynurenine cell based assay pIC50 [1] | SKOV3 Kynurenine cell based assay pIC50 [2]
22 | CCCC(=O)N1CCC(c2c[nH]c3cc(F)ccc23)CC1 [Compound 270] | ++ (++ = pIC50 5.00-5.99) | + (+ = pIC50 4.00-4.99)
23 | Fc1ccc2c(C3CCN(c4ccccn4)CC3)c[nH]c2c1 [Compound 193] | ++ (++ = pIC50 5.00-5.99) | ++ (++ = pIC50 5.00-5.99)
24 | O=C(CC1CC1)N1CCC(c2c[nH]c3cc(F)ccc23)CC1 [Compound 284] | + (+ = pIC50 4.00-4.99) | + (+ = pIC50 4.00-4.99)
25 | CCCn1cc(C(=O)N2CCC(c3c[nH]c4cc(F)ccc34)CC2)c(C)n1 [Compound 280] | ++ (++ = pIC50 5.00-5.99) | + (+ = pIC50 4.00-4.99)
26 | O=C(N1CCC(c2c[nH]c3cc(F)ccc23)CC1)C1(c2ccccc2)CC1 [Compound 281] | + (+ = pIC50 4.00-4.99) | + (+ = pIC50 4.00-4.99)
27 | CC(=O)N1CC=C(c2c[nH]c3c(F)cc(F)cc23)CC1 [Compound 231] | + (+ = pIC50 4.00-4.99) | + (+ = pIC50 4.00-4.99)
28 | CC(=O)N1CCC(c2c[nH]c3ccc(OCc4ccccc4)cc23)CC1 [Compound 208] | + (+ = pIC50 4.00-4.99) | + (+ = pIC50 4.00-4.99)
29 | CS(=O)(=O)N1CCC(c2c[nH]c3cc(F)c(Cl)cc23)CC1 [Compound 253] | + (+ = pIC50 4.00-4.99) | + (+ = pIC50 4.00-4.99)
30 | CC(C)S(=O)(=O)N1CCC(c2c[nH]c3cc(F)ccc23)CC1 [Compound 289] | ++ (++ = pIC50 5.00-5.99) | + (+ = pIC50 4.00-4.99)
31 | CC(=O)N1CCC(c2c[nH]c3cc(OCc4ccccc4)ccc23)CC1 [Compound 221] | + (+ = pIC50 4.00-4.99) | + (+ = pIC50 4.00-4.99)
32 | Fc1ccc2c(C3CCN(c4ccncc4)CC3)c[nH]c2c1 [Compound 301] | + (+ = pIC50 4.00-4.99) | + (+ = pIC50 4.00-4.99)
33 | CC(=O)N1CCC(c2c[nH]c3cc(F)c(Cl)cc23)CC1 [Compound 252] | + (+ = pIC50 4.00-4.99) | + (+ = pIC50 4.00-4.99)
34 | CS(=O)(=O)N1CCC(c2c[nH]c3cc(Cl)c(F)cc23)CC1 [Compound 243] | + (+ = pIC50 4.00-4.99) | + (+ = pIC50 4.00-4.99)
35 | COc1cccc(C(=O)N2CCC(c3c[nH]c4cc(F)ccc34)CC2)n1 [Compound 273] | + (+ = pIC50 4.00-4.99) | + (+ = pIC50 4.00-4.99)
36 | CC(=O)N1CCC(c2c[nH]c3cc(Cl)ccc23)CC1 [Compound 245] | ++ (++ = pIC50 5.00-5.99) | + (+ = pIC50 4.00-4.99)
37 | CC(=O)N1CC=C(c2c[nH]c3cc(Cl)c(F)cc23)CC1 [Compound 228] | ++ (++ = pIC50 5.00-5.99) | + (+ = pIC50 4.00-4.99)
38 | CC1(C)CC(c2c[nH]c3cc(F)ccc23)CCN1S(C)(=O)=O (stereo not drawn) [Compound 317] | ++ (++ = pIC50 5.00-5.99) | + (+ = pIC50 4.00-4.99)
39 | Cn1nc(-c2ccccc2)cc1C(=O)N1CCC(c2c[nH]c3cc(F)ccc23)CC1 [Compound 279] | + (+ = pIC50 4.00-4.99) | + (+ = pIC50 4.00-4.99)
40 | CS(=O)(=O)N1CCC(c2c[nH]c3ccc(C(F)(F)F)cc23)CC1 [Compound 240] | + (+ = pIC50 4.00-4.99) | ++ (++ = pIC50 5.00-5.99)
41 | CN1CC2CN(c3c[nH]c4ccccc34)CCN2C1=O (stereo not drawn) [Compound 192] | + (+ = pIC50 4.00-4.99) | +− (+− = pIC50 <4.00)
42 | CS(=O)(=O)N1CCC(c2c[nH]c3cc(C(F)(F)F)ccc23)CC1 [Compound 234] | + (+ = pIC50 4.00-4.99) | + (+ = pIC50 4.00-4.99)
